Reference: US12226383B1, “Compositions containing short-chain fatty acid, methods of use, and methods of making thereof” (Velocity Life Sciences, LLC, priority 2024, dated 2025)

Tests used:
[1] = Exposure of powder sample at room temperature to air (hygroscopicity, storage stability); type: physicochemical; details: for State of powder after exposure to air: exposed to air
Source text: The L-arginine butyrate prepared using ethanol as the sole solvent was a white to off-white powder.
The L-lysine butyrate prepared using ethanol as the sole solvent was a light, pale yellow to yellow powder.

[2] = Study to assess nootropic and related properties after oral administration; type: in vivo, human
Method: In another experiment, L-lysine butyrate in a dose range of 500 mg to 5,000 mg was administered as an aqueous solution to six individuals aged between 22 and 55 years, comprising two women and four men. […] The observed effects were dose-dependent, with larger doses of L-lysine butyrate providing greater effects and longer duration, lasting up to four hours.
In another experiment, L-lysine butyrate in a dose of 2 g, and on a separate occasion 5 g, was administered in encapsulated form, to 2 individuals. A further individual was administered L-lysine butyrate in a dose of 2 g in encapsuled form.

[3] = seven (7) days, room temperature

| Substance | Hygroscopicity [1] | State of powder after exposure to air ([1]; 24 hours, room temperature) | State of powder after exposure to air [1, 3] | Storage stability of the solid ([1]; room temperature) | State of powder after exposure to air ([1]; thirty (30) days, room temperature) | Time to reported effects after administration ([2]; 500 mg to 5,000 mg as aqueous solution, six individuals) | Effects reported by participants ([2]; 500 mg to 5,000 mg as aqueous solution, six individuals, dose-dependent) | Duration of effects ([2]; 500 mg to 5,000 mg as aqueous solution, larger doses longer duration) | Analgesic effect ([2]; oral administration, 2 g encapsulated, two of the individuals) | Mental effects ([2]; single oral administration of 2 g, encapsulated form) | Mental effects (undesirable) ([2]; single oral administration of 5 g, encapsulated form) | Calming effect in a baby ([2]; small dosage of 25 mg or 50 mg) |
| --- | --- | --- | --- | --- | --- | --- | --- | --- | --- | --- | --- | --- |
| L-arginine butyrate [reference compound] | quite hygroscopic | formed hard, rock-like clumps | significantly hydrated into, large solid masses |  |  |  |  |  |  |  |  |  |
| L-lysine butyrate | not hygroscopic | remained a fine, free-flowing yellow powder | remained a fine, free-flowing powder with no color change | stable to storage at room temperature | remained a fine, free-flowing powder | thirty | more relaxed, less tired, more sociable, and able to concentrate on tasks more effectively | up to four | eliminating minor-to-moderate pain and discomfort | pleasant mental effects | undesirable mental effects | effective to calm a baby |
